From patent US20240109903A1, “SUBSTITUTED HETEROCYCLES FOR TREATING CANCER” (Northwestern University, priority 2022, published 2024)
pIC50: −log10 of the molar value.

Columns and labels:
Assay type in all cases: cell-based
CAKI-1 = test: NCI 60 five-dose screen CAKI-1; conditions: Homo sapiens
KM12 = test: NCI 60 five-dose screen KM12; conditions: Homo sapiens
SK-MEL-5 = test: NCI 60 five-dose screen SK-MEL-5; conditions: Homo sapiens
HCT-15 = test: NCI 60 five-dose screen HCT-15; conditions: Homo sapiens
M14 = test: NCI 60 five-dose screen M14; conditions: Homo sapiens
OVCAR-3 = test: NCI 60 five-dose screen OVCAR-3; conditions: Homo sapiens
HT29 = test: NCI 60 five-dose screen HT29; conditions: Homo sapiens
EKVX = test: NCI 60 five-dose screen EKVX; conditions: Homo sapiens
TK-10 = test: NCI 60 five-dose screen TK-10; conditions: Homo sapiens
CCRF-CEM = test: NCI 60 five-dose screen CCRF-CEM; conditions: Homo sapiens
PC-3 = test: NCI 60 five-dose screen PC-3; conditions: Homo sapiens
SW-620 = test: NCI 60 five-dose screen SW-620; conditions: Homo sapiens
NCI/ADR-RES = test: NCI 60 five-dose screen NCI/ADR-RES; conditions: Homo sapiens
NCI-H522 = test: NCI 60 five-dose screen NCI-H522; conditions: Homo sapiens
SK-MEL-2 = test: NCI 60 five-dose screen SK-MEL-2; conditions: Homo sapiens
A498 = test: NCI 60 five-dose screen A498; conditions: Homo sapiens
MCF7 = test: NCI 60 five-dose screen MCF7; conditions: Homo sapiens
HL-60(TB) = test: NCI 60 five-dose screen HL-60(TB); conditions: Homo sapiens
MDA-MB-435 = test: NCI 60 five-dose screen MDA-MB-435; conditions: Homo sapiens
MALME-3M = test: NCI 60 five-dose screen MALME-3M; conditions: Homo sapiens, Malme-3M
HS 578T = test: NCI 60 five-dose screen HS 578T; conditions: Homo sapiens
DU-145 = test: NCI 60 five-dose screen DU-145; conditions: Homo sapiens
HOP-92 = test: NCI 60 five-dose screen HOP-92; conditions: Homo sapiens
ACHN = test: NCI 60 five-dose screen ACHN; conditions: Homo sapiens
K-562 = test: NCI 60 five-dose screen K-562; conditions: Homo sapiens
OVCAR-5 = test: NCI 60 five-dose screen OVCAR-5; conditions: Homo sapiens
BT-549 = test: NCI 60 five-dose screen BT-549; conditions: Homo sapiens
HCT-116 = test: NCI 60 five-dose screen HCT-116; conditions: Homo sapiens
[1] = read-out: LC50 (the source's name) (converted)
[2] = read-out: LC50 (the source's name)

O=c1ccc(Cn2c(C(F)(F)F)cc3c(Cl)ncnc32)c[nH]1 [NUCC-0226698]
GI50 (CAKI-1): 23.4 µM
pIC50 (CAKI-1): 4.37
IC (TGI) (CAKI-1): 100 µM
CC50 (CAKI-1; [1]): ≥ 100 µM
GI50 (KM12): 17.8 µM
pIC50 (KM12): 4.52
IC (TGI) (KM12): 39.8 µM
CC50 (KM12; [1]): 91.2 µM
GI50 (SK-MEL-5): 4.07 µM
pIC50 (SK-MEL-5): 5.15
IC (TGI) (SK-MEL-5): 15.1 µM
CC50 (SK-MEL-5; [1]): 38.9 µM
GI50 (HCT-15): 2.95 µM
pIC50 (HCT-15): 5.42
IC (TGI) (HCT-15): 14.8 µM
CC50 (HCT-15; [1]): ≥ 100 µM
GI50 (M14): 4.07 µM
pIC50 (M14): 5.16
IC (TGI) (M14): 21.9 µM
CC50 (M14; [1]): ≥ 100 µM
GI50 (OVCAR-3): 14.8 µM
pIC50 (OVCAR-3): 4.54
IC (TGI) (OVCAR-3): 33.1 µM
CC50 (OVCAR-3; [1]): 72.4 µM
GI50 (HT29; HT-29): 28.8 µM
pIC50 (HT29; HT-29): 4.42
IC (TGI) (HT29; HT-29): 100 µM
CC50 (HT29; HT-29, read-out: LC50 (the source's name) (converted)): ≥ 100 µM
GI50 (EKVX): 14.1 µM
pIC50 (EKVX): 4.51
IC (TGI) (EKVX): 36.3 µM
CC50 (EKVX; [1]): 91.2 µM
GI50 (TK-10): ≥ 100 µM
pIC50 (TK-10): 4.00
IC (TGI) (TK-10): 100 µM
CC50 (TK-10; [1]): ≥ 100 µM
GI50 (CCRF-CEM): 4.37 µM
pIC50 (CCRF-CEM): 5.18
IC (TGI) (CCRF-CEM): 100 µM
CC50 (CCRF-CEM; [2]): ≥ 100 µM
GI50 (PC-3): 17 µM
pIC50 (PC-3): 4.55
IC (TGI) (PC-3): 56.2 µM
CC50 (PC-3; [1]): ≥ 100 µM
GI50 (SW-620): 5.5 µM
pIC50 (SW-620): 5.15
IC (TGI) (SW-620): 26.3 µM
CC50 (SW-620; [1]): ≥ 100 µM
GI50 (NCI/ADR-RES): 14.1 µM
pIC50 (NCI/ADR-RES): 4.56
IC (TGI) (NCI/ADR-RES): 39.8 µM
CC50 (NCI/ADR-RES; [1]): ≥ 100 µM
GI50 (NCI-H522): 2.04 µM
pIC50 (NCI-H522): 5.40
IC (TGI) (NCI-H522): 4.9 µM
CC50 (NCI-H522; [1]): ≥ 100 µM
GI50 (SK-MEL-2): 17 µM
pIC50 (SK-MEL-2): 4.48
IC (TGI) (SK-MEL-2): 32.4 µM
CC50 (SK-MEL-2; [1]): 63.1 µM
GI50 (A498): ≥ 100 µM
pIC50 (A498): 4.00
IC (TGI) (A498): 100 µM
CC50 (A498; [1]): ≥ 100 µM
GI50 (MCF7): 20.9 µM
pIC50 (MCF7): 4.49
IC (TGI) (MCF7): 67.6 µM
CC50 (MCF7; [1]): ≥ 100 µM
GI50 (HL-60(TB)): 2.09 µM
pIC50 (HL-60(TB)): 5.44
IC (TGI) (HL-60(TB)): 6.03 µM
CC50 (HL-60(TB); [1]): ≥ 100 µM
GI50 (MDA-MB-435): 4.68 µM
pIC50 (MDA-MB-435): 5.14
IC (TGI) (MDA-MB-435): 20.4 µM
CC50 (MDA-MB-435; [1]): 74.1 µM
GI50 (MALME-3M): 15.8 µM
pIC50 (MALME-3M): 4.44
IC (TGI) (MALME-3M): 34.7 µM
CC50 (MALME-3M; [1]): 77.6 µM
GI50 (HS 578T): 8.71 µM
pIC50 (HS 578T): 4.00
IC (TGI) (HS 578T): 50.1 µM
CC50 (HS 578T; [2]): ≥ 100 µM
GI50 (DU-145): 38.9 µM
pIC50 (DU-145): 4.21
IC (TGI) (DU-145): 100 µM
CC50 (DU-145; [1]): ≥ 100 µM
GI50 (HOP-92): 22.9 µM
pIC50 (HOP-92): 4.00
IC (TGI) (HOP-92): 100 µM
CC50 (HOP-92; [1]): ≥ 100 µM
GI50 (ACHN): 22.4 µM
pIC50 (ACHN): 4.47
IC (TGI) (ACHN): 100 µM
CC50 (ACHN; [1]): ≥ 100 µM
GI50 (K-562; K562): 2.82 µM
pIC50 (K-562; K562): 5.47
IC (TGI) (K-562; K562): 100 µM
CC50 (K-562; K562, read-out: LC50 (the source's name)): ≥ 100 µM
GI50 (OVCAR-5): 61.7 µM
pIC50 (OVCAR-5): 4.00
IC (TGI) (OVCAR-5): 100 µM
CC50 (OVCAR-5; [1]): ≥ 100 µM
GI50 (BT-549): 14.1 µM
pIC50 (BT-549): 4.53
IC (TGI) (BT-549): 28.8 µM
CC50 (BT-549; [1]): 58.9 µM
GI50 (HCT-116): 3.55 µM
pIC50 (HCT-116): 5.38
IC (TGI) (HCT-116): 29.5 µM
CC50 (HCT-116; [1]): ≥ 100 µM
